Columns and labels:
[1] = system: MIA PaCa-2; test: Cytotoxicity against human MIAPaCa2 cells after 24 hrs by MTT assay; format: functional, cell-based; conditions: MIA PaCa-2, 24 h
[2] = Cytotoxicity against human MV-3 cells after 24 hrs by MTT assay; format: functional, cell-based; conditions: MV-3, 24 h

SMILES	IC50 [1] [µM]	IC50 [2] [µM]
CC(C)C1=C(O)C(=O)C2=C(C(=O)C[C@H]3C(C)(C)CCC[C@]23C)C1=O	30.1	65.8
CCO[C@@H]1C[C@H]2C(C)(C)CCC[C@]2(C)C2=C1C(=O)C(C(C)C)=C(O)C2=O	> 100	> 80
COc1c(O)c(C(C)C)cc2c1[C@@]1(C)CCCC(C)(C)[C@@H]1CC2=O	34.9	32.3
CC1=CCCc2c1ccc1c2C(=O)C(=O)c2c(C)coc2-1	5.6	
CC(C)C1=Cc2ccc3c(c2C(=O)C1=O)C(=O)CCC3(C)C	29.9	
CC(=O)O[C@@H]1C[C@H]2C(C)(C)CCC[C@]2(C)C2=C1C(=O)C(C(C)C)=C(O)C2=O	4.7	7.4
CC[C@@]1(O)C(=O)OCc2c1cc1n(c2=O)Cc2cc3ccccc3nc2-1 [CAMPTOTHECIN]	0.4	
COc1c(C(C)C)cc2c(c1O)[C@@]1(C)CCCC(C)(C)[C@@H]1CC2=O [CRYPTOJAPONOL]	> 100	> 80
C[C@H]1COC2=C1C(=O)C(=O)c1c2ccc2c1CCCC2(C)C [CRYPTOTANSHINONE]	5.8	
CC(C)C1=C(O)C(=O)c2c(ccc3c2CCCC3(C)C)C1=O [DEOXYNEOCRYPTOTANSHINONE]	> 100	> 150
CC(C)c1cc2c(cc1O)[C@@]1(C)CCCC(C)(C)[C@@H]1CC2 [FERRUGINOL]	25.9	
CC(C)C1=C(O)C(=O)C2=C(C1=O)[C@H](O)C[C@H]1C(C)(C)CCC[C@]21C [HORMINONE]	27.5	16.7
COc1c(C(C)C)cc2c(c1O)[C@@]1(C)CCCC(C)(C)[C@@H]1[C@@H](O)C2 [IGUESTOL]	41.3	65.9
COc1c(O)c2c(c(O)c1C(C)C)C(=O)C[C@H]1C(C)(C)CCC[C@]21C [INUROYLEANOL]	> 80	> 120
CC(C)c1cc2ccc3c(c2c(O)c1O)C(=O)CCC3(C)C [MILTIODIOL]	66.3	
CC(C)C1=Cc2ccc3c(c2C(=O)C1=O)CCCC3(C)C [MILTIRONE]	22.5	
COc1c(O)c(C(C)C)c(O)c2c1[C@@]1(C)CCCC(C)(C)[C@@H]1CC2=O [ORTHOSIPHONOL]	> 100	> 80
CC(C)C1=C(O)C(=O)C2=C(CC[C@H]3C(C)(C)CCC[C@]23C)C1=O [ROYLEANONE]	32.5	> 80
CC(C)=CCCc1c(C)ccc2c1C(=O)C=C(C(C)C)C2=O [SAHANDINONE]	10.2	
CC(C)c1cc2c(cc1O)[C@@]1(C)CCCC(C)(C)[C@@H]1CC2=O [SUGIOL]	17.9	34.1
Cc1coc2c1C(=O)C(=O)c1c-2ccc2c1CCCC2(C)C [TANSHINONE IIA]	1.9	
Cc1coc2c1C(=O)C(=O)c1c-2ccc2c(C)cccc12 [TANSHINONE I]	10.5	
